“Also recorded” adds a separate entry of the source.
Columns and labels:
β-galactosidase [1] = molecular target: T1, β-galactosidase (Escherichia coli, UniProt P00722); experiment: Changes in absorption and fluorescence spectra by enzyme reaction; type: biochemical; conditions: 1 μM probe in PBS buffer, 5U β-galactosidase; for fluorescence emission in response to enzyme activity of β-galactosidase: excitation 610 nm, fluorescence 638 nm, 3600 seconds
Procedure: For the probe compounds of the present invention obtained in Example 1 (4-CH2F-SPiDER-RED-βGal and 2-CH2F-SPiDER-RED-βGal), changes in absorption and fluorescence spectra according to the addition of β-galactosidase were measured. The measurement results of 4-CH2F-SPiDER-RED-βGal are shown in FIG. 1, and the measurement results of 2-CH2F-SPiDER-RED-βGal are shown in FIG. 2.
The measurement conditions are as follows: an excitation wavelength of 610 nm, a slit (excitation/fluorescence) of 2.5 nm/2.5 nm, and a photomultiplier voltage of 700 V.
Measurements were carried out by adding 5U β-galactosidase to 2-CH2F-SPiDER-RED-βGal prepared at 1 μM in a PBS buffer solution. […] The measurement conditions are as follows: an excitation wavelength of 610 nm, a slit (excitation/fluorescence) of 2.5 nm/2.5 nm, and a photomultiplier voltage of […].

β-galactosidase [2] = molecular target: T1, β-galactosidase; experiment: Labeling of fluorescent dye to BSA protein by β-galactosidase enzyme reaction in presence of BSA (SDS-PAGE fluorescence); type: biochemical; conditions: 1 mg/mL BSA, 5U β-galactosidase in PBS; for fluorescent labeling of BSA (fluorescence at the position of BSA after SDS electrophoresis): 10 μM compound, excitation 488 nm, fluorescence 540 to 600 nm
Procedure: The measurement results of 4-CH2F-SPiDER-RED-βGal are shown in FIG. 3, and the measurement results of 2-CH2F-SPiDER-RED-βGal are shown in FIG. 4.
Using 1) 10 μL of a PBS buffer solution containing 10 μM […], 1 mg/mL BSA, and 5U β-galactosidase, 2) 10 μL of a PBS buffer solution containing 10 μM 4-CH2F-SPiDER-RED-βGal and 1 mg/mL BSA, 3) 10 μL of a PBS buffer solution containing 10 μM 4-CH2F-SPiDER-RED-βGal and 5U β-galactosidase, 4) 10 μL of a PBS buffer solution containing only 10 μM 4-CH2F-SPiDER-RED-βGal, and 5) 10 μL of a PBS buffer solution containing 10 μM 4-CH2OH-SPiDER-RED, the reaction products were subjected to SDS-PAGE (running gel: 10%, stacking gel: 4%, electrophoresis voltage: 200 V). […] After observation, each gel was Coomassie stained and the position of the BSA on the gel was confirmed (FIG. 3(b)).
FIGS. 4(a) and 4(b) show the results of similar measurement using 10 μM 2-CH2F-SPiDER-RED-βGal instead of 10 μM 4-CH2F-SPiDER-RED-βGal.

[3] = system: cells not expressing β-galactosidase (HEK); experiment: Fluorescence imaging of living cells, co-cultured cells not expressing β-galactosidase; type: cell-based; conditions: 37° C. for 30 minutes, no washing; excitation 594 nm, fluorescence 610 to 700 nm
Procedure: (§1) 4-CHF2-SPiDER-RED-βGal was added to a dish in which cells expressing β-galactosidase (HEK-lacZ) and cells not expressing β-galactosidase (HEK) were co-cultured, and incubated at 37° C. for 30 minutes. The HEK cells were previously stained with CellTracker (TM) Green. A fluorescence image and a transmitted light image were acquired using a confocal microscope (TCS SP5X; manufactured by Leica). White light laser (WLL) was used as laser, and HCX PL APO CS 40×/1.25 (40 times, manufactured by Leica) was used as an objective lens. The observation conditions were as follows: an excitation wavelength: 594 nm, a fluorescence wavelength: 610 to 700 nm, and a scale: 25 μm.

[4] = system: cells expressing β-galactosidase (HEK-lacZ); experiment: Fluorescence imaging of living cells expressing β-galactosidase (co-culture, confocal microscope); type: cell-based; conditions: 37° C. for 30 minutes, no washing; excitation 594 nm, fluorescence 610 to 700 nm
Procedure: as §1

[5] = system: Wing discs of a drosophila (en-lacZ/dpp-GFP) expressing β-galactosidase and GFP; experiment: Non-fixed fluorescence imaging of living biological tissue having β-galactosidase activity; type: cell-based, Drosophila melanogaster; conditions: room temperature for 2 hours, excitation 594 nm, fluorescence 601 to 681 nm
Procedure: Next, we have examined whether the probe compound of the present invention, 4-CHF2-SPiDER-RED-βGal, can be applied to fluorescence imaging of living biological tissues by using drosophila tissues.
Wing discs of a drosophila (Drosophila melanogaster, en-lacZ/dpp-GFP) expressing β-galactosidase and GFP in some tissues were incubated with 4-CHF2-SPiDER-RED-βGal and Hoechst 33342 at room temperature for 2 hours, and then observed under a confocal microscope (TCS SP8, manufactured by Leica). White light laser (WLL) was used as laser, and HCX PL APO CS 40×/1.25 (40 times, manufactured by Leica) was used as an objective lens. The measurement conditions are as follows: excitation wavelengths: 405 nm (Hoechst 33342), 488 nm (GFP), 594 nm (4-CHF2-SPiDER-RED-βGal), fluorescence wavelengths: 420 to 490 nm (Hoechst 33342), 490 to 570 nm (GFP), 601 to 681 nm (4-CHF2-SPiDER-RED-βGal), and a scale: 75 μm.

T1 sequence (P00722 2-1024): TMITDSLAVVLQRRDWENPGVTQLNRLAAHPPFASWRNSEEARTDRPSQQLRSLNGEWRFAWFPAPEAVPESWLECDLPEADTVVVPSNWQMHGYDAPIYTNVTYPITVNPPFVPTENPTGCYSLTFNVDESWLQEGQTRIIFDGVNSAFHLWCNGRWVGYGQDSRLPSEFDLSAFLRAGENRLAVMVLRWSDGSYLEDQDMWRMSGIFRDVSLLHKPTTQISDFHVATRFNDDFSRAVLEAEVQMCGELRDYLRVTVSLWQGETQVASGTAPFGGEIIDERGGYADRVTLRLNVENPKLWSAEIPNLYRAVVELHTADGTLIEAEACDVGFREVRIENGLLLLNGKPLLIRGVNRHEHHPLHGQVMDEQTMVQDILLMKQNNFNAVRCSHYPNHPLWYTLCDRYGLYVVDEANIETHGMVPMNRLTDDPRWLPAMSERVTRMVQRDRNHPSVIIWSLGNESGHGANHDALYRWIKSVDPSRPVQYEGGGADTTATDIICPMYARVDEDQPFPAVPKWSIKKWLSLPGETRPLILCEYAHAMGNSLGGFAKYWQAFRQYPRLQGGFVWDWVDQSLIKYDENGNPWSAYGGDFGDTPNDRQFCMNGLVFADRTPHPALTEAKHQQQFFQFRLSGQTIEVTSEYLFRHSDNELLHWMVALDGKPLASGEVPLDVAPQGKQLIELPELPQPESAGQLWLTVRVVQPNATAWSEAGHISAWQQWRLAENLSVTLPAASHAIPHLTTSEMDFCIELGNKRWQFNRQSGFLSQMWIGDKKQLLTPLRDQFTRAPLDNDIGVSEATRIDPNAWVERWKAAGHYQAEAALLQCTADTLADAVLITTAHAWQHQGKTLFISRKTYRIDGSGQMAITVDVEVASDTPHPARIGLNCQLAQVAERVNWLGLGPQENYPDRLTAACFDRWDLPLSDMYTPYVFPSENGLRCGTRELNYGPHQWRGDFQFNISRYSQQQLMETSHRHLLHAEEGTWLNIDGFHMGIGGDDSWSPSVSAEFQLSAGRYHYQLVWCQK

SMILES	fluorescence emission in response to enzyme activity of β-galactosidase (β-galactosidase [1])	fluorescent labeling of BSA (fluorescence at the position of BSA after SDS electrophoresis) (β-galactosidase [2])	fluorescent labeling of BSA (fluorescence at the position of BSA after SDS electrophoresis) (β-galactosidase [2]; listed as 2-CHF2-SPiDER-RED-βGal)	fluorescence intensity of labeled BSA (comparison of the two probes) (β-galactosidase [2]; 10 μM probe)	reactivity with the enzyme (β-galactosidase [2]; 10 μM probe)	red fluorescence signal in HEK cells not expressing β-galactosidase [3]	fluorescence increasing rate (comparison of the two probes) (β-galactosidase [1])	reactivity with β-galactosidase (comparison of the two probes) (β-galactosidase [1])	red fluorescence in HEK-lacZ cells [4]	selective fluorescence imaging of the region / cells having β-galactosidase activity in living tissue ([5]; with Hoechst 33342, listed as 4-CHF2-SPiDER-RED-βGal)	diffusion of fluorescence of the enzyme reaction product in tissue [5]
CN(C)c1ccc2c(c1)[Si](C)(C)c1cc(O[C@@H]3O[C@H](CO)[C@H](O)[C@H](O)[C@H]3O)c(CF)cc1C21OC(=O)c2ccccc21 (some centres unmarked) [2-CH2F-SPiDER-RED-βGal]	emit fluorescence specifically in response to enzyme activity of β-galactosidase	fluorescently label bovine serum albumin (BSA) protein	BSA was fluorescently labeled	lower than that of 4-CHF2-SPiDER-RED-βGal	low						
CN(C)c1ccc2c(c1)[Si](C)(C)c1c(ccc(O[C@@H]3O[C@H](CO)[C@H](O)[C@H](O)[C@H]3O)c1CF)C21OC(=O)c2ccccc21 (some centres unmarked) [4-CH2F-SPiDER-RED-βGal]	emit fluorescence specifically in response to enzyme activity of β-galactosidase	fluorescently label bovine serum albumin (BSA) protein				no red fluorescence signal was obtained	higher fluorescence increasing rate than 2-CHF2-SPiDER-RED-βGal	higher reactivity with β-galactosidase	red fluorescence derived from the test compound was observed only in HEK-lacZ cells	selective fluorescence imaging of the region having β-galactosidase activity was possible; also recorded: can be detected at a single-cell level	no diffusion of fluorescence
CN(C)c1ccc2c(c1)[Si](C)(C)c1c(ccc(O)c1CO)C21OC(=O)c2ccccc21 (centres unmarked) [4-CH2OH-SPiDER-RED, reference compound]		fluorescence was not observed									
